Where two headings read alike, the source gives them in different places.
Experiments:
UGT1A1 = biological target: T1, UGT1A1 (Homo sapiens, UniProt P22309); format: biochemical; conditions: for Effect on glucuronidation of BDMC by UGT1A1 enzyme: inhibitor 5 and 20 μM; for Effect of UGT1A1 inhibitors on rates of BDMC-O-glucuronidation: nilotinib 10 μM, protopanaxatriol 500 μM, glycyrrhetinic acid 20 μM
T1 sequence (P22309 26-533): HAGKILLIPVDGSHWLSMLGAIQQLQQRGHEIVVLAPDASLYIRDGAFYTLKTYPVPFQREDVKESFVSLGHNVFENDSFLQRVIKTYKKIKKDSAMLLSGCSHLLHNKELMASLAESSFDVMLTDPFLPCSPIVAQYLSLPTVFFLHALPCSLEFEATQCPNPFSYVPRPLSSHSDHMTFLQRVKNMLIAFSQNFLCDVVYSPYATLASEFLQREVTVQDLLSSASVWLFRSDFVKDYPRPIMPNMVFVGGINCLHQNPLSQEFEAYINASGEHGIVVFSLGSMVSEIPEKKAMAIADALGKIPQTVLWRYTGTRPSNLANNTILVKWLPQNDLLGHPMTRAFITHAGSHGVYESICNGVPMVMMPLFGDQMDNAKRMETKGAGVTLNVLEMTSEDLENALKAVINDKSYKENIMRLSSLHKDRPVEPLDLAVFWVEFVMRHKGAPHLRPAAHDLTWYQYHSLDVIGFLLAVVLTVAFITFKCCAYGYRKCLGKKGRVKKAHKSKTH

HeLa1A1 cell lysate = biological target: T2, HeLa1A1 cell lysate (Homo sapiens, UniProt P22309); format: biochemical
T2 sequence (P22309 26-533): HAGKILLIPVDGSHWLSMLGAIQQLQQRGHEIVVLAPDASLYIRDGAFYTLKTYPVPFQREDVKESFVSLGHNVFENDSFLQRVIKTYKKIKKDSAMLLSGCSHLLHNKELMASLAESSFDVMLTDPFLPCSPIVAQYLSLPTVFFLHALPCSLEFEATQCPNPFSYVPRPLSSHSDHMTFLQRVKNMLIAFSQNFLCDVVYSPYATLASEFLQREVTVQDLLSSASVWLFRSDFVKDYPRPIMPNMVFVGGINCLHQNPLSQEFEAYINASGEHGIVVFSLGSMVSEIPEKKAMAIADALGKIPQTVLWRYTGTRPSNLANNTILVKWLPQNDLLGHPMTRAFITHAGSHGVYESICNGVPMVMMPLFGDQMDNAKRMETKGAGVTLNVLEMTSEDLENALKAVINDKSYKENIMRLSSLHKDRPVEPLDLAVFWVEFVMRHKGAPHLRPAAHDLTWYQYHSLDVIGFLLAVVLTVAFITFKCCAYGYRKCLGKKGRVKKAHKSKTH

HeLa1A1 cells = test: BDMC-O-glucuronide excretion experiments in HeLa1A1 cells; format: cell-based, human; conditions: for Increase of intracellular levels of BDMC-O-glucuronide / Decrease of BDMC-O-glucuronide excretion: inhibitor 5 and 20 μM, 5 μM BDMC, versus control; for Increase of intracellular levels of BDMC-O-glucuronide: cells collected at 2 h

SMILES	Effect on glucuronidation of BDMC by UGT1A1 enzyme (UGT1A1)	Effect on glucuronidation of BDMC by HeLa1A1 cell lysate (HeLa1A1 cell lysate; inhibitor 5 and 20 μM)	Increase of intracellular levels of BDMC-O-glucuronide (HeLa1A1 cells)	Decrease of BDMC-O-glucuronide excretion (HeLa1A1 cells)	Effect of UGT1A1 inhibitors on rates of BDMC-O-glucuronidation (UGT1A1)	further results
OCCN(CCO)c1nc(N2CCCCC2)c2nc(N(CCO)CCO)nc(N3CCCCC3)c2n1 [DIPY, dipyridamole]	inhibit	inhibit	20.5–25.4%	8.4–36.5%	–	–
CCCCC/C=C\C\C=C/C=C/C=C/[C@@H](SC[C@H](NC(=O)CC[C@H](N)C(=O)O)C(=O)NCC(=O)O)[C@@H](O)CCCC(=O)O [LTC4, leukotriene C4]	–	–	–	–	–	Effect on glucuronidation of BDMC by UGT1A1 (UGT1A1; LTC4 0.05 and 0.2 μM): no influences; Effect on glucuronidation of BDMC by HeLa1A1 cell lysate (HeLa1A1 cell lysate; LTC4 0.05 and 0.2 μM): no influences; Effect on excretion of BDMC-O-glucuronide (HeLa1A1 cells; LTC4 0.05 and 0.2 μM): did not show any effects; Effect on formation of BDMC-O-glucuronide (HeLa1A1 cells; LTC4 0.05 and 0.2 μM): did not show any effects
CN(C)C(=O)CCSC(SCCC(=O)O)c1cccc(/C=C/c2ccc3ccc(Cl)cc3n2)c1 (stereo not drawn) [MK-571]	inhibit	inhibit	27.1–32.6%	6.2~61.6%	–	Effect on efflux clearance of BDMC-O-glucuronide (HeLa1A1 cells; HeLa1A1 cells, ER/Ci): reduction
CC1(C)[C@@H](O)CC[C@]2(C)[C@H]3C(=O)C=C4[C@@H]5C[C@@](C)(C(=O)O)CC[C@]5(C)CC[C@@]4(C)[C@]3(C)CC[C@@H]12 [glycyrrhetinic acid]	–	–	–	–	altered	–
Cc1cn(-c2cc(NC(=O)c3ccc(C)c(Nc4nccc(-c5cccnc5)n4)c3)cc(C(F)(F)F)c2)cn1 [nilotinib]	–	–	–	–	altered	–

From paper PMC7383220 (BioFactors (Oxford, England), 2018)
